Values quoted from earlier work in paper PMC5590095 (Chemical Science, 2017).

Tested on: tubulin

Celogentin C
inhibitory activity against tubulin polymerization: inhibitory activity against tubulin polymerization
